The values below come from US20210260015A1, “COMPOSITION FOR INHIBITING FAT ACCUMULATION” (National University Corporation Tokyo University of …, priority 2018, published 2021).

Holding throughout (format): in vivo, C57BL/6J male mice
The nature of experiment [1]: Weights of adipose tissues 5 weeks after the beginning of ingestion. The following applies: conclusion from diet groups, C8 vs C10 or C12. The protocol: (§1) Seven (7)-week-old C57BL/6J male mice (Japan SLC, Inc.) were acclimated with CLEA Rodent Diet CE-2 (manufactured by CLEA Japan, Inc.) for 1 week, and divided into 5 groups (n=9 or 10). Any of feeds having the compositions indicated in Tables 1 and 2, i.e., four types of test diets and a normal diet, was given to the respective groups for 5 weeks. Specifically, as the test diets, MCT diets were prepared by blending MCTs and LCT in a low-carbohydrate high-fat diet feed made based on an AIN-93G standard composition feed, and an LCT diet was prepared by blending LCT (manufactured by Wako Pure Chemical Industries) alone, without MCT, in a low-carbohydrate high-fat diet feed made based on an AIN-93G standard composition feed. […]
(§2) The ingestion amounts of the test diets and the body weight changes during the test period (5 weeks) were measured, and the weights of the various organs including adipose tissues and the plasma levels of ketone bodies were measured at the end of the test period. […] In addition, plasma was collected from the collected blood, and ketone bodies were quantified according to an enzymatic method.

Experiment [2] can be described thus: Plasma levels of ketone bodies 5 weeks after the beginning of ingestion (enzymatic method). To be noted: conclusion from diet groups. How it is done:
as §1, §2

Experiment [3] can be described thus: Body weight changes of mice fed test diets for 5 weeks. The following applies: conclusion from diet groups, C8 vs C10 and C12. The protocol:
as §1, §2

As for `CCCCCCCC(=O)OCC(COC(=O)CCCCCCC)OC(=O)CCCCCCC` [caprylic acid triglyceride (C8), caprylic acid triglyceride], the “effect for suppressing neutral fat accumulation depending on the number of carbon atoms of the constituent fatty acid of MCT” value in experiment [1] is “has a higher effect for suppressing neutral fat accumulation than that of capric acid triglyceride (C10) or lauric acid triglyceride (C12)”. Moreover, the “ketone body production, C8 vs C10 or C12 triglyceride” value in experiment [2] was “produces ketone bodies more than those produced by capric acid triglyceride (C10) or lauric acid triglyceride (C12)”. For the same compound, the “effect for suppressing body weight gain depending on the number of carbon atoms of the constituent fatty acid of MCT” value in experiment [3] is “has a higher effect for suppressing body weight gain than those of capric acid triglyceride (C10) and lauric acid triglyceride (C12)”.
